According to patent US20250120922A1, “COMPOSITION FOR IMPROVING COW REPRODUCTIVE ABILITY” (SOLOMON CO., LTD., priority 2022, published 2025):
Several values for one entry are separate records, joined by “and”; a condition that tells them apart may be missing. Identical values can stand only once.

Test system: cows after calving
Test: Effect of improving cow reproductive ability (first return to estrus after calving, composition mounted on the leash)
Format: in vivo
Details: for First return to estrus day after calving: leash mounting type, 3 heads
Source text: The mixture was poured into a wax tray and completely hardened to prepare a composition for improving cow reproductive ability.
By using the composition prepared in Example 2, the effect of improving the cow reproductive ability was confirmed after being mounted on the leash of cows after calving. The first return to estrus after calving was generally known to be 60 to 90 days, and in the experiment, confirmed to be average 84.20±6.64 in the case of cow used as a control group.

Cc1ccc(O)cc1 [p-cresol] was tested, and the “First return to estrus day after calving” value (1% p-cresol in paraffin wax block) was 46 ± 4 days, the “First return to estrus day after calving” value (5% p-cresol in paraffin wax block) was 28 days and 28 ± 4 days and the “Return of estrus earlier than the earliest normal return time of estrus (approximately 45 days after calving)” value (5% p-cresol pheromone block) was “about 17 days”.
